Measurements from ChEMBL document CHEMBL1201862, “PubChem BioAssay data set” (2004).
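The compound was tested at five concentrations on cells cultured in 96-well plates, with a 48-hour exposure period. GI50 marks 50% less growth.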 Activity calls are given as the source filed them. No stated cut-off is given here; in the data, active = GI50 up to about 1.1 µM and inactive = higher.

Assays:
Assay in all cases: NCI tumour cell line growth inhibition, 48 h
SF-295 = test system: SF-295
MCF7 = test system: MCF7
RXF 393 = test system: RXF 393
EKVX = test system: EKVX
UACC-62 = test system: UACC-62
NCI-H522 = test system: NCI-H522
HOP-62 = test system: HOP-62
SNB-75 = test system: SNB-75
SF-539 = test system: SF-539
HL-60 = test system: HL-60
ACHN = test system: ACHN
HCC 2998 = test system: HCC 2998
MDA-MB-435 = test system: MDA-MB-435
SNB-19 = test system: SNB-19
OVCAR-4 = test system: OVCAR-4
MDA-MB-231 = test system: MDA-MB-231
NCI-H226 = test system: NCI-H226
BT-549 = test system: BT-549
MDA-N = test system: MDA-N
LOX IMVI = test system: LOX IMVI

Measured: GI50

N#Cc1ccc(/C=N/NC(=O)CSCC(=O)N/N=C/c2ccc(C#N)cc2)cc1
inactive: SF-295 > 100 µM | MCF7 > 100 µM | RXF 393 > 100 µM | EKVX > 100 µM | UACC-62 > 100 µM | NCI-H522 > 100 µM | HOP-62 > 100 µM | SNB-75 26.3 µM | SF-539 > 100 µM | HL-60 > 100 µM | ACHN > 100 µM | HCC 2998 > 100 µM | MDA-MB-435 > 100 µM | SNB-19 > 100 µM | OVCAR-4 > 100 µM | MDA-MB-231 29.1 µM | NCI-H226 > 100 µM

CC12CCC(=O)N1c1cncnc1N2 (stereo unspecified)
active: HL-60 0.0374 µM
inactive: SF-295 > 10 µM | MCF7 > 10 µM | EKVX > 10 µM | BT-549 > 10 µM | MDA-N > 10 µM | UACC-62 > 10 µM | NCI-H522 > 10 µM | SNB-75 > 10 µM | LOX IMVI > 10 µM | SF-539 > 10 µM | ACHN > 10 µM | HCC 2998 > 10 µM | MDA-MB-435 > 10 µM | SNB-19 > 10 µM | OVCAR-4 > 10 µM | NCI-H226 > 10 µM

CCCNC(=O)Cn1c2c(c3ccccc31)CCCC2
inactive: SF-295 38.5 µM | MCF7 > 100 µM | EKVX 56.6 µM | BT-549 87.7 µM | MDA-N 68.7 µM | UACC-62 45.4 µM | HOP-62 78 µM | LOX IMVI > 100 µM | SF-539 37.1 µM | HL-60 29.6 µM | ACHN 34.9 µM | HCC 2998 75.5 µM | MDA-MB-435 > 100 µM | SNB-19 36.7 µM | OVCAR-4 45.8 µM

Cc1ccc2c(c1)-c1nc(N)c(C#N)c(-c3ccccc3)c1CCS2(=O)=O
inactive: BT-549 36.4 µM | MDA-N > 100 µM | UACC-62 49.7 µM | NCI-H522 39.2 µM | HOP-62 30.5 µM | SNB-75 24.4 µM | LOX IMVI > 100 µM | ACHN 38.5 µM | HCC 2998 > 100 µM | MDA-MB-435 > 100 µM | SNB-19 23.6 µM | OVCAR-4 16.7 µM | MDA-MB-231 37 µM | NCI-H226 24.3 µM

CC(C)(C)[Si](C)(C)OC1/C(=C/C#N)C(n2ccc(=O)[nH]c2=O)OC1CO (stereo unspecified)
inactive: SF-295 > 100 µM | MCF7 > 100 µM | RXF 393 > 100 µM | MDA-N > 100 µM | UACC-62 > 100 µM | NCI-H522 > 100 µM | HOP-62 > 100 µM | SF-539 > 100 µM | ACHN > 100 µM | MDA-MB-435 > 100 µM | SNB-19 > 100 µM | OVCAR-4 > 100 µM | MDA-MB-231 > 100 µM

CSc1ncnc2c1CCN2
inactive: SF-295 6.81 µM | MCF7 6.34 µM | RXF 393 > 10 µM | EKVX > 10 µM | MDA-N 3.4 µM | UACC-62 3.81 µM | NCI-H522 2.73 µM | HOP-62 > 100 µM | SNB-75 > 10 µM | LOX IMVI 6.34 µM | HL-60 4.29 µM | ACHN > 10 µM | HCC 2998 > 10 µM | MDA-MB-435 2.21 µM | SNB-19 > 10 µM | OVCAR-4 > 10 µM | MDA-MB-231 > 10 µM | NCI-H226 > 10 µM

COc1cc2c(/C=C3/C(=O)Nc4ccc(Cl)cc43)c(Cl)[nH]c2cc1C
active: SF-295 0.356 µM | MCF7 0.489 µM | RXF 393 0.375 µM | BT-549 0.181 µM | UACC-62 0.288 µM | HOP-62 0.439 µM | SNB-75 0.215 µM | LOX IMVI 0.738 µM | SF-539 0.232 µM | HL-60 0.366 µM | ACHN 0.587 µM | MDA-MB-435 0.201 µM | SNB-19 0.408 µM | OVCAR-4 0.818 µM | MDA-MB-231 0.74 µM | NCI-H226 1.1 µM
inactive: NCI-H522 2.16 µM

CCOC(=O)CCCn1nnc(C(=O)OCC)c1C(=O)OCC
inactive: SF-295 > 100 µM | MCF7 > 100 µM | RXF 393 > 100 µM | EKVX > 100 µM | BT-549 > 100 µM | MDA-N > 100 µM | UACC-62 > 100 µM | HOP-62 > 100 µM | SNB-75 > 100 µM | LOX IMVI > 100 µM | SF-539 > 100 µM | ACHN > 100 µM | HCC 2998 > 100 µM | MDA-MB-435 > 100 µM | SNB-19 > 100 µM | OVCAR-4 > 100 µM | MDA-MB-231 > 100 µM | NCI-H226 > 100 µM

Cc1cc(N=C2C=C(Br)C(=O)C(Br)=C2)cc(CN(CC(=O)O)CC(=O)O)c1O
inactive: SF-295 > 100 µM | MCF7 > 100 µM | RXF 393 > 100 µM | EKVX > 100 µM | UACC-62 > 100 µM | NCI-H522 > 100 µM | HOP-62 > 100 µM | SNB-75 > 100 µM | SF-539 > 100 µM | HL-60 > 100 µM | ACHN > 100 µM | HCC 2998 > 100 µM | MDA-MB-435 > 100 µM | SNB-19 > 100 µM | OVCAR-4 > 100 µM | MDA-MB-231 > 100 µM | NCI-H226 > 100 µM
